Publication PMC11237774, “On-target, dual aminopeptidase inhibition provides cross-species antimalarial activity” (mBio, 2024)
Like-named read-outs stand apart in the source and are kept apart here.

Experiments:
[1] = molecular target: human aminopeptidase N (APN or CD13); parameters: method as in PMID 30537832; settings: cited from earlier work
[2] = Metabolic stability in liver microsomes; assay type: in vitro ADME; settings: read-out: in vitro microsomal CLint
Protocol: Samples were collected over the incubation period, quenched by the addition of an equal volume of acetonitrile, and analyzed using a Waters Acquity UPLC and Xevo G2 QTOF mass spectrometer with positive electrospray ionization under the MS^E mode. The natural log of the substrate concentration was plotted against the incubation time to determine the first-order degradation rate constant which was normalized to the microsomal protein concentration to give the in vitro intrinsic clearance (in vitro CLint, µL/min/mg microsomal protein). […] Cell viability was determined by Trypan Blue exclusion. At various times over the incubation period, samples were quenched with the addition of an equal volume of acetonitrile and analyzed as described above. Metabolite identification was conducted by accurate mass and tandem mass spectrometry (MS/MS) analysis.

[3] = system: TM90C2B; experiment: microbe, parasite or virus in culture; assay type: cell-based, P. falciparum; settings: Plasmodium falciparum, read-out: EC50 nM (mean)
Protocol: (§1) In vitro testing was performed using the modified [^3H]hypoxanthine incorporation assay, as previously reported ([34]). The specific mutations in the field isolates (see Table 1, top six strains) have been previously described ([35], [36]), as have the specific mutations in the laboratory-selected Dd2 parasites (see Table 1, remaining five strains) ([36]).

[4] = system: Dd2; experiment: microbe, parasite or virus in culture; assay type: cell-based, P. falciparum; settings: Plasmodium falciparum, DD2, read-out: EC50 nM (mean)
Protocol: as §1

[5] = system: NF54; experiment: microbe, parasite or virus in culture; assay type: cell-based, P. falciparum; settings: Plasmodium falciparum
Protocol: as §1

[6] = system: K1; experiment: microbe, parasite or virus in culture; assay type: cell-based, P. falciparum; settings: Plasmodium falciparum, read-out: EC50 nM (mean)
Protocol: as §1

[7] = system: 7G8; experiment: microbe, parasite or virus in culture; assay type: cell-based, P. falciparum; settings: Plasmodium falciparum, read-out: EC50 nM (mean)
Protocol: as §1

[8] = system: Cam3.1 (MRA1240); experiment: microbe, parasite or virus in culture; assay type: cell-based, P. falciparum; settings: Plasmodium falciparum, read-out: EC50 nM (mean)
Protocol: as §1

[9] = molecular target: Pb-M17 (Plasmodium berghei, UniProt A0A509APA2); experiment: Recombinant aminopeptidase fluorescence assay (H-Leu-NHMec); assay type: biochemical; settings: Pb M17, Morrison equation; read-out: Ki^(app) ± SEM
Protocol: Inhibition of aminopeptidase activity assays were performed against nine aminopeptidases: the M1 alanyl and M17 leucyl aminopeptidases from P. falciparum (PfA-M1; PfA-M17), P. vivax (Pv-M1; Pv-M17), and P. berghei (Pb-M1; Pb-M17), and three human M1 homologs: LTA4H (OriGene TP307617), ERAP1 (OriGene TP314469), and ERAP2 (Creative BioMart ERAP2-304H). The Plasmodium enzymes were produced recombinantly as described previously ([16], [17]), and the human recombinant enzymes were purchased from commercial suppliers as indicated.
The concentration of H-Leu-NHMec in the assay was held constant for each enzyme and ranged from 10 to 100 µM, depending on the enzyme. Reactions were measured at 37°C in white 384-well plates in a total volume of 25 or 50 µL using a spectrofluorimeter (BMG FLUOstar) with excitation at 355 nm and emission at 460 nm. The fluorescence signal was continuously monitored until a final steady-state velocity, v, was obtained. Inhibition constants were calculated from biological triplicates made from three different protein preparations.
Substrate concentrations were selected to allow sensitive detection of enzyme activity while not exceeding the Km for each enzyme. A compound concentration range was selected to obtain a complete inhibition curve (0%–100 %) in biological triplicate. Where possible, the Ki values were calculated by plotting the initial rates versus inhibitor concentration and fitting to the Morrison equation for tight-binding inhibitors in GraphPad Prism (V.8.4.1; non-linear regression method).

[10] = molecular target: T1, HDAC9 (Homo sapiens, UniProt Q9UKV0); experiment: Eurofins Cerep safety pharmacology screening; assay type: biochemical; settings: read-out: Mean % inhibition (n=2); HDAC9, 10 µM
T1 construct: Eurofins Cerep (contract screen)
Excerpt: Results showing any inhibition or stimulation higher than 50% are considered to represent significant effects of the test compounds.

[11] = Plasma stability; assay type: in vitro ADME; settings: 37°C
Protocol: After centrifugation, the supernatant was collected and stored at −80°C until analysis. Sample analysis was conducted using a Waters Acquity UPLC and Quattro Premier mass spectrometer operated in a positive electrospray ionization mode with multiple-reaction monitoring (transition [m/z] 395.27 > 362.28, cone voltage 20 V, CID 7 V). […] The injection volume was 3 µL, and the flow rate was 0.4 mL/min. Concentrations were determined by comparison to a calibration curve prepared in blank plasma and processed in the same way as for the samples.

[12] = system: MMP2, 7, 8, 9, and 13; parameters: method as in PMID 30537832; settings: tested up to 200 µM; cited from earlier work
[13] = Plasma protein binding by ultracentrifugation; assay type: in vitro ADME; settings: plasma (10% plasma diluted with PBS), pH 7.4
Protocol: (§2) Human plasma was obtained from the Volunteer Blood Donor Registry (Walter & Eliza Hall Institute, Melbourne, Australia), rat plasma was from male Sprague-Dawley rats (Animal Resource Centre, Perth, Western Australia) and mouse plasma was procured as described above. RPMI-1640 media supplemented with 25 mM HEPES, 2 g/L sodium bicarbonate, and 100 mg/L neomycin were additionally supplemented with 5 […] on the day prior to binding assessment. […] Additional aliquots of spiked matrix were maintained at 37°C for 4.2 h but not centrifuged to serve as controls for stability assessment and to obtain a measure of the total concentration in each matrix. Following centrifugation, aliquots of the protein-free supernatant and the non-centrifuged matrix controls were “matrix matched” by addition of an equal volume of the opposite medium (i.e., either blank buffer or blank matrix) and assayed as described above with comparison to calibration standards prepared in 50% matrix/50% PBS.

[14] = system: Pf3D7; experiment: Parasite killing rate (wash-out) assay; assay type: cell-based, P. falciparum; settings: washout after 24 or 48 h of treatment, 10× EC50, parasites traversed a trophozoite stage
Protocol: Assays were performed as previously described ([7]). […] Parasite cultures incubated for 48 h were fed at 24 h with fresh media containing compound. […] Once thawed, cultures were analyzed using SYBR Green I as described above. Parasite viability was determined as a percentage of vehicle-treated controls, and experiments were performed in four biological replicates.

[15] = Plasma protein binding by ultracentrifugation; assay type: in vitro ADME, human; settings: plasma (10% plasma diluted with PBS), pH 7.4
Protocol: as §2

Sequence of Pb-M17 (A0A509APA2 entry or part of it): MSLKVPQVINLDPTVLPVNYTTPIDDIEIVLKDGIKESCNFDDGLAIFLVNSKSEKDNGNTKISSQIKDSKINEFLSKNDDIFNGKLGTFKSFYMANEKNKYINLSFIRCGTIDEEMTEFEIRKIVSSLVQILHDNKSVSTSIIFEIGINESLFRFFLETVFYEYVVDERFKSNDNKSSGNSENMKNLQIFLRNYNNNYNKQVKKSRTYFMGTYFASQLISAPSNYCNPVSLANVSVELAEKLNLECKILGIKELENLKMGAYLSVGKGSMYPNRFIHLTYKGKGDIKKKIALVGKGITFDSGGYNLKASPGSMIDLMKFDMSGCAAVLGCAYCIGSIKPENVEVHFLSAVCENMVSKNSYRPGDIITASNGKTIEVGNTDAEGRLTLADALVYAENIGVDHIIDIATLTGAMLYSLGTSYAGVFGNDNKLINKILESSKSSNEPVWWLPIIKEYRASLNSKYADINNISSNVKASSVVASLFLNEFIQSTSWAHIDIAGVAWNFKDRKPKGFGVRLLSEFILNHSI
T1 sequence (Q9UKV0 whole entry): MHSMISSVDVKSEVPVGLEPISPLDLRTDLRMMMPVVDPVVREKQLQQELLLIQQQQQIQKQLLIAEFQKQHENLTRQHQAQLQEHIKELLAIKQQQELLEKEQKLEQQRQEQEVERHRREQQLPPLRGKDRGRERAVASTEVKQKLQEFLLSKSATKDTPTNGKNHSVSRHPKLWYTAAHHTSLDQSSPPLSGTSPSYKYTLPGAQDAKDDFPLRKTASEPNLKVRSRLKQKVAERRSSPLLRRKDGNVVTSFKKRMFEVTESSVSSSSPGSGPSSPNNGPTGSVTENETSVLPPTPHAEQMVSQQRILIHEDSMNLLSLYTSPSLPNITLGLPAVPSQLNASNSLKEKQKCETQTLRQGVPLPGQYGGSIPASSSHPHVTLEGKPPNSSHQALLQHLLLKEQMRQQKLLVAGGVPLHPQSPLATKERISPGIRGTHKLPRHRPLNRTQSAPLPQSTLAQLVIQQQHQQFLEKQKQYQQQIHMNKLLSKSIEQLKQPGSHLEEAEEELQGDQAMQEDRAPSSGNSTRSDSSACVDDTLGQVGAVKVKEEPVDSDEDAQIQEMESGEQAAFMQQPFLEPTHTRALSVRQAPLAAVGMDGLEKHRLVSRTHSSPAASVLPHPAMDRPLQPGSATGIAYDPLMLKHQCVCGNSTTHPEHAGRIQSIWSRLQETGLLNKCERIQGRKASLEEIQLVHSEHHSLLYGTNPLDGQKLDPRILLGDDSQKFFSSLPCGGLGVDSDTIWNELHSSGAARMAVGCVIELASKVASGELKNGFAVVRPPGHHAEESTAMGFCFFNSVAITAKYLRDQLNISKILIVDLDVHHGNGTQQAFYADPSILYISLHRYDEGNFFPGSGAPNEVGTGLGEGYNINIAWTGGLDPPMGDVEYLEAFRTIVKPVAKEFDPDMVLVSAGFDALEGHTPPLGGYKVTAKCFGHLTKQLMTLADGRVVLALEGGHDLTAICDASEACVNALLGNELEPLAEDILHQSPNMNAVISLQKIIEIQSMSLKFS

## CC(C)(C)CC(=O)NC(C(=O)NO)c1ccc(-c2cc(F)c(F)c(F)c2)cc1 (stereo not drawn) [MMV1557817, N-(2-(hydroxyamino)−2-oxo-1-(3′,4′,5′-trifluoro-[1,1′-biphenyl]-4-yl)ethyl)-3,3-dimethylbutanamide]
[1]
  Ki: 300 nM
[2]; human liver microsomes
  microsomal CLint at 1 µM: 11 µL/min/mg
[2]; mouse liver microsomes
  microsomal CLint at 1 µM: 23 µL/min/mg
[2]; rat liver microsomes
  microsomal CLint at 1 µM: 29 µL/min/mg
[3]
  EC50: 21 nM
[4]
  EC50: 23 nM
[5]; NF54, read-out: unbound EC50
  EC50: 3.4 nM
[5]; NF54, sensitive strain, read-out: EC50 nM (mean)
  EC50: 22 nM
[6]
  EC50: 26 nM
[7]
  EC50: 28 nM
[8]
  EC50: 23 nM
[9]
  Ki: 130 ± 7 nM
[10]
  inhibition at 10 µM: -3.6%
[11]; human plasma
  remaining at 4 h: 97%
[11]; mouse plasma
  remaining at 4 h: 93%
[12]
  off-target inhibition: limited off-target inhibitory affects
[13]; male, Sprague-Dawley, rat plasma
  fraction unbound at 4.2 h: 0.022
[13]; mouse plasma
  fraction unbound at 4.2 h: 0.023
[14]
  parasite survival: less than 10%
[15]; Sprague-Dawley (rat plasma), human, summary in text over the plasma species tested, read-out: bound to plasma proteins
  fraction unbound at 4.2 h: 0.01 to 0.02
[15]; human plasma, read-out: Plasma protein binding (converted)
  fraction unbound at 4.2 h: 0.012
